Source: patent publication US20220402935A1, “HETEROCYCLIC COMPOUND” (FIMECS, INC., priority 2019, published 2022)
pIC50: −log10 of the molar value.

What was measured:
IRAK-M [1] = molecular target: T1, IRAK-M (Homo sapiens, UniProt Q9Y616); assay: IRAK-M binding inhibitory activity (KINOMEscan active site-dependent competitive assay); parameters: purchased Eurofins Discover X; conditions: for remaining binding at 1 µM: concentration of the test compound 1 μM, first symbol of cell, read-out: IRAK-M binding inhibition activity % Ctrl
T1 sequence (Q9Y616 1-596): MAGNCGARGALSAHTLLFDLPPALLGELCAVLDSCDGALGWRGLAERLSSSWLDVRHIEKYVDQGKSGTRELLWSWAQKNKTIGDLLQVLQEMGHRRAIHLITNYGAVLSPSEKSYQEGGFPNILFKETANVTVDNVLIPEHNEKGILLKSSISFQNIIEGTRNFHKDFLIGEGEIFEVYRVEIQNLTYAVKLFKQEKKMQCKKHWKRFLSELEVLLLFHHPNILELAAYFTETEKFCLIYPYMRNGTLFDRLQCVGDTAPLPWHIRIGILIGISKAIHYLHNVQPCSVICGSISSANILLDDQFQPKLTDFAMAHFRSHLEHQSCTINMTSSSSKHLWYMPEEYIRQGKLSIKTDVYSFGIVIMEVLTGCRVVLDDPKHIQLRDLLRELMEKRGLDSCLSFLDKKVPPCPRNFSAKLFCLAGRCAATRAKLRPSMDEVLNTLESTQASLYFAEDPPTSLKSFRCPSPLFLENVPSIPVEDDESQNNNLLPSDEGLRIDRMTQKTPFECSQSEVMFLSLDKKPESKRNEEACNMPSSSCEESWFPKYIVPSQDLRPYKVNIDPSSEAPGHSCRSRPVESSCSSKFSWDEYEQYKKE
Method in brief: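 Readout given as % Ctrl, with DMSO as 100% and a control compound as 0%, scaling the test compound signal between them. Binding to human IRAK-M was assessed by KINOMEscan competition at the kinase active site.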

[2] = molecular target: T2, human XIAP_BIR3 domain purified protein (Homo sapiens, UniProt P98170); assay: XIAP binding inhibitory activity (HTRF, b-Smac ligand); conditions: second symbol of cell; read-out: XIAP binding inhibition IC50 value
T2 construct: purchased R & D
T2 sequence (P98170 252-356 limits assumed): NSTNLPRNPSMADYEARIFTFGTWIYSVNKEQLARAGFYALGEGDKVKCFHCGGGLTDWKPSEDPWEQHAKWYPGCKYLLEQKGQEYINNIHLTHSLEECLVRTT
Method in brief: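 HTRF competition between compound and C-terminally biotinylated Smac peptide AVPIAQK for His-tagged XIAP BIR3, both diluted to 90 nM before addition, in pH 7.5 HEPES/NaCl/BSA/Triton buffer. Eu-cryptate anti-His and streptavidin-XL665 added, ≥4 h at room temperature in the dark; inhibition % from 665/615 nm ratio versus no-compound wells.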

IRAK-M [3] = molecular target: T1, IRAK-M; assay: In vitro degradation activity of target protein (IRAK-M ELISA in THP1 cells); assay type: cell-based; parameters: host or cells: THP1 cells; conditions: 24 hours, second symbol of cell, read-out: IRAK-M 50% degradation concentration (DC50 value)
Method: In vitro degradation activities of target protein of the example compounds were evaluated using Enzyme-linked immuno-sorbent assay (ELISA) by the following assay steps. THP1 cells (ATCC, TIB-202) were cultured in RPMI-1640 supplemented with 10% FBS, lx sodium pyruvate, lx HEPES, D-(+)-glucose and 1% penicillin/streptomycin. THP1 cells were seeded at a density of 1×10^6 cells/well in 24-well plate and treated with DMSO control or test compound, and then incubated for 24 hours. The cells were collected and lysed on ice for 30 minutes in lysis buffer (PBS containing 0.1% Triton X-100) containing a protease inhibitor cocktail (Roche, Cat #11836170001). The lysates were sonicated for 30 sec ON/30 sec OFF for ten cycles and centrifuged for 10 minutes at 13k rpm at 4° C. Protein concentrations were determined by the BCA assay (Sigma, Cat #QPBCA-1KT). The ELISA assay was performed using the Human IRAK3/IRAKM/IRAK-M ELISA Kit (LifeSpan BioSciences, Cat #LS-F35271), and the protein levels of IRAK-M were evaluated according to the kit protocol. As to the IRAK-M degradation rate of test compounds, protein degradation rate (%) when the concentration of the test compound is […] described as A≥75%, 50%≤B<75%, 25%≤C<50%, D<25%, or 50% degradation concentration (DC50 value) described as A<0.03 μM, 0.03 μM≤B<0.1 μM, 0.1 μM≤C<0.3 μM, 0.3 μM≤D<1 μM, is shown in the table below.

| Compound | pIC50 (IRAK-M [1]; second symbol of cell, read-out: IRAK-M binding inhibition IC50 value) | pIC50 [2] | DC50 (IRAK-M [3]) [µM] | remaining binding at 1 µM (IRAK-M [1]) [%] |
| --- | --- | --- | --- | --- |
| CN[C@@H](C)C(=O)N[C@H](C(=O)N1CCN(C(=O)c2cc3cc(F)ccc3n2CC(=O)N2CCC[C@H]2COc2cc(CN3CCC(Oc4ccnc5ccsc45)CC3)on2)[C@@H](C)C1)C1CCCCC1 [Example 28, (S)-N-((S)-1-Cyclohexyl-2-((S)-4-(5-fluoro-1-(2-oxo-2-((S)-2-(((5-((4-(thieno[3,2-b]pyridin-7-yloxy)piperidin-1-yl)methyl)isoxazol-3-yl)oxy)methyl)pyrrolidin-1-yl)ethyl)-1H-indole-2-carbonyl)-3-methylpiperazin-1-yl)-2-oxoethyl)-2-(methylamino)propanamide] | 6.00 to 6.52 | 4.52 to 5.52 | < 0.03 |  |
| CN[C@@H](C)C(=O)N[C@H](C(=O)N1CCN(C(=O)c2cc3cc(F)c(F)cc3n2CCOCCOCCOCCOc2cc(CN3CCC(Oc4ccnc5ccsc45)CC3)on2)CC1)C1CCCCC1 [Example 29, (S)-N-((S)-1-cyclohexyl-2-(4-(5,6-difluoro-1-(2-(2-(2-(2-((5-((4-(thieno[3,2-b]pyridin-7-yloxy)piperidin-1-yl)methyl)isoxazol-3-yl)oxy)ethoxy)ethoxy)ethoxy)ethyl)-1H-indole-2-carbonyl)piperazin-1-yl)-2-oxoethyl)-2-(methylamino)propanamide] |  | 4.52 to 5.52 | 0.3 to 1 | < 25 |
| CN[C@@H](C)C(=O)N[C@H](C(=O)N1CCN(C(=O)c2c(Cl)c3ccccc3n2CC(=O)N(C)CCOCCOCCOCCOc2cc(CN3CCC(Oc4ccnc5ccsc45)CC3)on2)CC1)C1CCCCC1 [Example 32, (S)-N-((S)-2-(4-(3-chloro-1-(3-methyl-2-oxo-14-((5-((4-(thieno[3,2-b]pyridin-7-yloxy)piperidin-1-yl)methyl)isoxazol-3-yl)oxy)-6,9,12-trioxa-3-azatetradecyl)-1H-indole-2-carbonyl)piperazin-1-yl)-1-cyclohexyl-2-oxoethyl)-2-(methylamino)propanamide] |  | 4.52 to 5.52 | 0.3 to 1 | < 25 |
| CN[C@@H](C)C(=O)N[C@H](C(=O)N1CCN(C(=O)c2c(C)c3cc(F)ccc3n2CC(=O)N(C)CCOCCOCCOCCOc2cc(CN3CCC(Oc4ccnc5ccsc45)CC3)on2)CC1)C1CCCCC1 [Example 33, (S)-N-((S)-1-cyclohexyl-2-(4-(5-fluoro-3-methyl-1-(3-methyl-2-oxo-14-((5-((4-(thieno[3,2-b]pyridin-7-yloxy)piperidin-1-yl)methyl)isoxazol-3-yl)oxy)-6,9,12-trioxa-3-azatetradecyl)-1H-indole-2-carbonyl)piperazin-1-yl)-2-oxoethyl)-2-(methylamino)propanamide] |  | 4.52 to 5.52 | 0.3 to 1 | < 25 |
| CN[C@@H](C)C(=O)N[C@H](C(=O)N1CCN(C(=O)c2c(Cl)c3cc(F)ccc3n2CC(=O)N(C)CCOCCOCCOCCOc2cc(CN3CCC(Oc4ccnc5ccsc45)CC3)on2)CC1)C1CCCCC1 [Example 34, (S)-N-((S)-2-(4-(3-chloro-5-fluoro-1-(3-methyl-2-oxo-14-((5-((4-(thieno[3,2-b]pyridin-7-yloxy)piperidin-1-yl)methyl)isoxazol-3-yl)oxy)-6,9,12-trioxa-3-azatetradecyl)-1H-indole-2-carbonyl)piperazin-1-yl)-1-cyclohexyl-2-oxoethyl)-2-(methylamino)propanamide] |  | 4.52 to 5.52 | 0.3 to 1 | 25 to 50 |
| CN[C@@H](C)C(=O)N[C@H](C(=O)N1CCN(C(=O)c2c(C)c3ccccc3n2CC(=O)N(C)CCOCCOCCOCCOc2cc(CN3CCC(Oc4ccnc5ccsc45)CC3)on2)CC1)C1CCCCC1 [Example 35, (S)-N-((S)-1-cyclohexyl-2-(4-(3-methyl-1-(3-methyl-2-oxo-14-((5-((4-(thieno[3,2-b]pyridin-7-yloxy)piperidin-1-yl)methyl)isoxazol-3-yl)oxy)-6,9,12-trioxa-3-azatetradecyl)-1H-indole-2-carbonyl)piperazin-1-yl)-2-oxoethyl)-2-(methylamino)propanamide] |  | 4.52 to 5.52 | 0.3 to 1 | 25 to 50 |
| CN[C@@H](C)C(=O)N[C@H](C(=O)N1CCN(C(=O)c2c(F)c3cc(F)ccc3n2CC(=O)N(C)CCOCCOCCOCCOc2cc(CN3CCC(Oc4ccnc5ccsc45)CC3)on2)CC1)C1CCCCC1 [Example 36, (S)-N-((S)-1-cyclohexyl-2-(4-(3,5-difluoro-1-(3-methyl-2-oxo-14-((5-((4-(thieno[3,2-b]pyridin-7-yloxy)piperidin-1-yl)methyl)isoxazol-3-yl)oxy)-6,9,12-trioxa-3-azatetradecyl)-1H-indole-2-carbonyl)piperazin-1-yl)-2-oxoethyl)-2-(methylamino)propanamide] |  | 4.52 to 5.52 | 0.3 to 1 | 25 to 50 |
| CN[C@@H](C)C(=O)N[C@H](C(=O)N1CCN(C(=O)c2c(F)c3ccccc3n2CC(=O)N(C)CCOCCOCCOCCOc2cc(CN3CCC(Oc4ccnc5ccsc45)CC3)on2)CC1)C1CCCCC1 [Example 37, (S)-N-((S)-1-cyclohexyl-2-(4-(3-fluoro-1-(3-methyl-2-oxo-14-((5-((4-(thieno[3,2-b]pyridin-7-yloxy)piperidin-1-yl)methyl)isoxazol-3-yl)oxy)-6,9,12-trioxa-3-azatetradecyl)-1H-indole-2-carbonyl)piperazin-1-yl)-2-oxoethyl)-2-(methylamino)propanamide] |  | 4.52 to 5.52 | 0.3 to 1 | ≥ 75 |
| CN[C@@H](C)C(=O)N[C@H](C(=O)N1CCN(C(=O)c2c(Cl)c3ccccc3n2CC(=O)N2CCC[C@H]2COc2cc(CN3CCC(Oc4ccnc5ccsc45)CC3)on2)CC1)C1CCCCC1 [Example 38, (S)-N-((S)-2-(4-(3-chloro-1-(2-oxo-2-((S)-2-(((5-((4-(thieno[3,2-b]pyridin-7-yloxy)piperidin-1-yl)methyl)isoxazol-3-yl)oxy)methyl)pyrrolidin-1-yl)ethyl)-1H-indole-2-carbonyl)piperazin-1-yl)-1-cyclohexyl-2-oxoethyl)-2-(methylamino)propanamide] |  | 4.52 to 5.52 | 0.3 to 1 | 25 to 50 |
| CN[C@@H](C)C(=O)N[C@H](C(=O)N1CCN(C(=O)c2c(C)c3cc(F)ccc3n2CC(=O)N2CCC[C@H]2COc2cc(CN3CCC(Oc4ccnc5ccsc45)CC3)on2)CC1)C1CCCCC1 [Example 39, (S)-N-((S)-1-cyclohexyl-2-(4-(5-fluoro-3-methyl-1-(2-oxo-2-((S)-2-(((5-((4-(thieno[3,2-b]pyridin-7-yloxy)piperidin-1-yl)methyl)isoxazol-3-yl)oxy)methyl)pyrrolidin-1-yl)ethyl)-1H-indole-2-carbonyl)piperazin-1-yl)-2-oxoethyl)-2-(methylamino)propanamide] |  | 4.52 to 5.52 | 0.1 to 0.3 | 25 to 50 |
| CN[C@@H](C)C(=O)N[C@H](C(=O)N1CCN(C(=O)c2c(Cl)c3cc(F)ccc3n2CC(=O)N2CCC[C@H]2COc2cc(CN3CCC(Oc4ccnc5ccsc45)CC3)on2)CC1)C1CCCCC1 [Example 40, (S)-N-((S)-2-(4-(3-chloro-5-fluoro-1-(2-oxo-2-((S)-2-(((5-((4-(thieno[3,2-b]pyridin-7-yloxy)piperidin-1-yl)methyl)isoxazol-3-yl)oxy)methyl)pyrrolidin-1-yl)ethyl)-1H-indole-2-carbonyl)piperazin-1-yl)-1-cyclohexyl-2-oxoethyl)-2-(methylamino)propanamide] |  | 4.52 to 5.52 | 0.3 to 1 | 25 to 50 |
